# Reference: patent US7772252B2, “Heterocyclic substituted carbonyl derivatives and their use as dopamine D3 receptor ligands” (Aventis Pharmaceuticals Inc., priority 2001, dated 2010)
# Biological target: T1, cloned human dopamine D3 receptors (Homo sapiens, UniProt P35462)
# T1 construct: expressed in transfected cells; membrane homogenate
# Assay: [N-Methyl-3H]Spiroperidol binding to cloned human dopamine D3 receptors
# Conditions: read-out: D3 Ki
# In short: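 Radioligand displacement with [N-methyl-3H]spiroperidol was run on membranes from a high-expressing CHO clone carrying human D3. Membranes were prepared in 10% DMSO and stored at −80° C.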
# T1 sequence (P35462 whole entry): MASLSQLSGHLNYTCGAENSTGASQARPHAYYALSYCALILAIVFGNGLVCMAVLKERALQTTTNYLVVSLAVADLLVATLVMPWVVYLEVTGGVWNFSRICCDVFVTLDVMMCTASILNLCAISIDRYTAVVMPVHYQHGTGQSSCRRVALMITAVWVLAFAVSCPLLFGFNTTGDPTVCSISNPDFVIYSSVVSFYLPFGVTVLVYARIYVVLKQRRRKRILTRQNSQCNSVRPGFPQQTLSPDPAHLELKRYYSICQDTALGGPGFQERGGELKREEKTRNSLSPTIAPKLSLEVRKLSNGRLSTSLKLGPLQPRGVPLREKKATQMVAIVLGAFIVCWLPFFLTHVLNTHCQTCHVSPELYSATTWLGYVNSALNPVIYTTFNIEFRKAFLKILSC
row,Compound,Ki [nM]
1,O=C(NC1CC2CCC1C2)C1CC1CN1CCC(c2noc3ccsc23)CC1 (racemic) [compound 827395],31.4
2,CCC1CCC(NC(=O)C2CC2CN2CCN(Cc3ccccc3)CC2)CC1 (racemic) [compound 827241],89.5
3,COc1ccc2c(c1)c(N1CCN(C[C@@H]3C[C@H]3C(=O)N3CCC(n4ccnc4)CC3)CC1)nn2C [compound 833123],26.3
4,COc1c(F)ccc2c(C3CCN(CCC4(C(=O)N[C@H]5CC[C@H](O)CC5)CC4)CC3)noc12 [compound 833476],131
5,CN1CCC[C@@H]1CCNC(=O)[C@@H]1C[C@H]1CN1CCN(c2csc3cc(C(F)(F)F)ccc23)CC1 [compound 832216],76.5
6,O=C(NC1CCNCC1)[C@@H]1C[C@H]1CN1CCC(c2noc3ccsc23)CC1 [compound 833383],2.57
7,COc1ccc2c(c1)c(N1CCN(C[C@@H]3C[C@H]3C(=O)NCC3CCNCC3)CC1)nn2C [compound 833136],14.3
8,CC(C)(C)OC(=O)N1CCCCC1CCNC(=O)[C@@H]1C[C@H]1CN1CCC(c2noc3ccsc23)CC1 (mixture of isomers) [compound 832533],4.12
9,CCC1CCC(NC(=O)C2CC2CN2CCCN(c3onc4c3CCc3ccc(OC)cc3-4)CC2)CC1 (racemic) [compound 830131],34.1
10,O=C([C@@H]1C[C@H]1CN1CCC(c2noc3ccsc23)CC1)N1CCC(c2ccccc2)CC1 [compound 831193],23.8
11,O=C(NCCCN1CCCCC1)[C@@H]1C[C@H]1CN1CCC(c2noc3ccsc23)CC1 [compound 831045],335
12,O=C(NC1CCN(Cc2ccc(F)cc2F)CC1)C1CC1CN1CCC(c2noc3ccsc23)CC1 (racemic) [compound 832344],2.76
13,O=C(NCCCc1nc2ccccc2[nH]1)C1CC1CN1CCC(c2noc3ccsc23)CC1 (racemic) [compound 831622],34.6
14,O=C(NCC1CCCNC1)[C@@H]1C[C@H]1CN1CCN(c2csc3cc(C(F)(F)F)ccc23)CC1 (mixture of isomers) [compound 832504],5.77
15,O=C(NCCCn1ccnc1)[C@@H]1C[C@H]1CN1CCN(c2nn(-c3ccc(F)cc3)c3ccsc23)CC1 [compound 832565],1.45
16,O=C(NCc1ccc(-c2csnn2)cc1)[C@@H]1C[C@H]1CN1CCN(c2csc3cc(C(F)(F)F)ccc23)CC1 [compound 833515],48.3
17,CC1CCC(NC(=O)C2CC2CN2CCN(c3onc4c3CCc3ccccc3-4)CC2)CC1 (racemic) [compound 830121],47.1
18,O=C([C@@H]1C[C@H]1CN1CCC(c2noc3ccsc23)CC1)N1CCC(Oc2ccc(Cl)cc2)CC1 [compound 832723],54
19,O=C(NC1CCN(Cc2ccc(Oc3ccccc3)cc2)CC1)C1CC1CN1CCC(c2noc3ccsc23)CC1 (racemic) [compound 831820],6.54
20,COc1ccc2c(c1)c(N1CCN(C[C@@H]3C[C@H]3C(=O)N[C@H]3CC[C@H](C)CC3)CC1)nn2C [compound 831768],0.904
21,COc1ccc2c(c1)c(N1CCN(C[C@@H]3C[C@H]3C(=O)NC3CCN(Cc4ccc(F)c(F)c4)CC3)CC1)nn2C [compound 833626],2.17
22,O=C(NC1CCN(Cc2cccnc2)CC1)[C@@H]1C[C@H]1CN1CCC(c2noc3ccsc23)CC1 [compound 833485],2.99

row,Compound,Ki [nM]
1,COCCN1CCN(C(=O)[C@@H]2C[C@H]2CN2CCN(c3csc4cc(C(F)(F)F)ccc34)CC2)CC1 [compound 832835],18.1
2,NS(=O)(=O)c1ccc(CCNC(=O)C2CC2CN2CCC(c3noc4ccsc34)CC2)cc1 (racemic) [compound 831701],55.7
3,O=C(NC1CCN(CC2CCCCC2)CC1)[C@@H]1C[C@H]1CN1CCN(c2nn(-c3ccc(OC(F)(F)F)cc3)c3ccsc23)CC1 [A002437084],7.11
4,O=C([C@@H]1C[C@H]1CN1CCC(c2noc3ccsc23)CC1)N1CCC(c2noc3ccsc23)CC1 [compound 831345],34.4
5,O=C([C@@H]1C[C@H]1CN1CCN(c2csc3ncccc23)CC1)N1CCC[C@@H](Cn2ccnc2)C1 [A002437802],0.251
6,O=C(NCCCc1ccccc1)[C@@H]1C[C@H]1CN1CCC(c2nn(-c3ccc(C(F)(F)F)cc3)c3ccccc23)CC1 [compound 831312],214
7,O=C(NC1CCN(Cc2cccc(C(F)(F)F)c2)CC1)C1CC1CN1CCC(c2noc3ccsc23)CC1 (racemic) [compound 831831],6.31
8,CC(C)(C)OC(=O)N1CCC(NC(=O)C2CC2CN2CCC(c3noc4ccsc34)CC2)CC1 (racemic) [compound 832391],77.9
9,O=C(NC1CCN(c2ncccc2C(F)(F)F)C1)C1CC1CN1CCC(c2noc3ccsc23)CC1 (racemic) [compound 832199],18.7
10,O=C([C@@H]1C[C@H]1CN1CCC(c2noc3ccsc23)CC1)N1CCN(Cc2ccc(F)cc2)CC1 [compound 833132],108
11,O=C(NCCCc1cc[nH]c1)[C@@H]1C[C@H]1CN1CCN(c2csc3cc(C(F)(F)F)ccc23)CC1 [compound 832494],25
12,O=C([C@@H]1C[C@H]1CN1CCN(c2csc3cc(C(F)(F)F)ccc23)CC1)N1CCC[C@H](Cn2ccnc2)C1 [compound 833098],8.84
13,C[C@H]1CC[C@H](NC(=O)[C@@H]2C[C@H]2CN2CCC(c3nn(C4CCCCC4)c4cc(C(F)(F)F)ccc34)CC2)CC1 [compound 833697],105
14,"O=C(NCCCn1ccnc1)[C@@H]1C[C@H]1CN1CCC(c2nn(CC(F)(F)F)c3ccsc23)CC1 [A002287767, 2R-{4-[1-(2,2,20Trifluoro-ethyl)-1H-thieno[3,2-c]pyrazol-3-yl)-piperidin-1-ylmethyl]-1R-cycloproanecarboxylic acid (3-imidazol-1-yl-propyl)-amide]",3.3
15,COc1ccc2c(c1)c(N1CCN(C[C@@H]3C[C@H]3C(=O)N3CCN(Cc4ccc(C)cc4)CC3)CC1)nn2C [compound 833125],70.8
16,CCN1CCC(NC(=O)C2CC2CN2CCC(c3noc4ccsc34)CC2)CC1 (racemic) [compound 833372],1.04
17,C[C@H]1CC[C@H](N2CC(CN3CCN(c4noc5ccsc45)CC3)CC2=O)CC1 (stereo partly drawn) [832831DA],1150
18,O=C(NCCCN1CCCCC1)[C@@H]1C[C@H]1CN1CCC(c2noc3cc(C(F)(F)F)ccc23)CC1 [A002287764],0.48
19,O=C(NCc1cccc(Oc2ccccc2)c1)C1CC1CN1CCC(c2noc3ccsc23)CC1 (racemic) [compound 831735],81.3
20,O=C(NC1CCN(C(=O)c2ccc(Cl)nc2)CC1)C1CC1CN1CCC(c2noc3ccsc23)CC1 (racemic) [compound 832505],40.6
21,O=C(NC1CCNCC1)[C@@H]1C[C@H]1CN1CCC(c2csc3cc(C(F)(F)F)ccc23)CC1 [A002287513],3.57
22,COc1ccc2c(c1)c(N1CCN(C[C@@H]3C[C@H]3C(=O)NC3CCN(CC4CC4)CC3)CC1)nn2C [compound 832744],1.37

row,Compound,Ki [nM]
1,O=C(NC1CCN(Cc2ccccc2Cl)CC1)[C@@H]1C[C@H]1CN1CCC(c2noc3ccsc23)CC1 [compound 832730],3.62
2,O=C(NCCCN1CCOCC1)[C@@H]1C[C@H]1CN1CCN(c2nn(-c3ccc(C(F)(F)F)cc3)c3ccsc23)CC1 [compound 834205],90.5
3,O=C(NCCS(=O)(=O)c1cccc2cnccc12)C1CC1CN1CCC(c2noc3ccsc23)CC1 (racemic) [compound 832044],657
4,O=C(NCCN1CCCC1)[C@@H]1C[C@H]1CN1CCN(c2csc3cc(C(F)(F)F)ccc23)CC1 [compound 831886],16.8
5,O=C(C1CC1CN1CCC(c2noc3ccsc23)CC1)N1CCN(CCc2ccccc2)CC1 (racemic) [compound 832057],21.7
6,O=C(C1CC1CN1CCC(c2noc3ccsc23)CC1)N1CCN(C2CCCCC2)CC1 (racemic) [compound 829591],72.4
7,O=C(NC1CCN(Cc2cccc(Cl)c2)CC1)[C@@H]1C[C@H]1CN1CCN(c2csc3cc(C(F)(F)F)ccc23)CC1 [compound 832740],30.2
8,COc1ccc(CN2CCN(C(=O)C3CC3CN3CCC(c4noc5ccsc45)CC3)CC2)cc1 (racemic) [compound 832155],0.434
9,O=C(C1CC1CN1CCC(c2noc3ccsc23)CC1)N1CCC(c2cc(-c3ccco3)[nH]n2)CC1 (racemic) [compound 831704],47.5
10,C[C@H]1CC[C@H](NC(=O)[C@@H]2C[C@H]2CN2CCN(c3nn(-c4ccc(F)cc4)c4ccsc34)CC2)CC1 [compound 832850],0.264
11,Cn1nc(C2CCN(C[C@@H]3C[C@H]3C(=O)NCCCc3cccnc3)CC2)c2cccc(C(F)(F)F)c21 [compound 833092],33.5
12,O=C(NCCCn1cccc1)[C@@H]1C[C@H]1CN1CCC(c2noc3ccsc23)CC1 [compound 831376],40.3
13,C=CCN1CCN(C(=O)[C@@H]2C[C@H]2CN2CCN(c3csc4cc(C(F)(F)F)ccc34)CC2)CC1 [compound 832834],12.2
14,O=C(NCCCN1CCCCC1)[C@@H]1C[C@H]1CN1CCC(c2nsc3cc(Br)ccc23)CC1 [A002329100],6.32
15,O=C(NCCCn1ccnc1)[C@@H]1C[C@H]1CN1CCC(c2noc3c(C(F)(F)F)cccc23)CC1 [compound 832274],52.4
16,CC1CCC(NC(=O)C2CC2CN2CCN(c3noc4ccsc34)CC2)CC1 (racemic) [compound 830127],1.66
17,O=C(NC1CCN(C(=O)Nc2ccc(Cl)cc2)CC1)[C@@H]1C[C@H]1CN1CCC(c2noc3ccsc23)CC1 [compound 833714],4.16
18,CC1CCC(NC(=O)C2CC2CN2CCN(Cc3ccccc3)CC2)CC1 (racemic) [compound 827202],177
19,C[C@H]1CC[C@H](NC(=O)[C@H]2C[C@@H]2CN2CCN(c3noc4ccsc34)CC2)CC1 [compound 831082],38.2
20,O=C(NC1CCN(C(=O)c2cccc(Cl)c2)CC1)C1CC1CN1CCC(c2noc3ccsc23)CC1 (racemic) [compound 832488],39.5
21,O=C([C@@H]1C[C@H]1CN1CCC(c2noc3ccsc23)CC1)N1CCC(Cn2ccnc2)CC1 [compound 831957],63.2
22,CC1CCC(NC(=O)C2CC2CN2CCCN(c3onc4c3CCc3ccccc3-4)CC2)CC1 (racemic) [compound 830123],73.8
